Laboratory results published in patent US7175991B2, “Method of measuring binding site on plasma protein of plasma protein-binding drug and method of measuring plasma protein mutation” (Nihon Medi-Physics Co., Ltd., priority 2002, dated 2007).
Read-outs that look alike come from different tables or passages of the source.

Columns and labels:
HSA Site I [1] = biological target: T1, HSA Site I (Homo sapiens, UniProt P02768); experiment: Four-nuclide simultaneous measurement, human serum 1: displacement of ^99mTcO4^-; conditions: human serum 1, four nuclides
T1 sequence (P02768 25-609): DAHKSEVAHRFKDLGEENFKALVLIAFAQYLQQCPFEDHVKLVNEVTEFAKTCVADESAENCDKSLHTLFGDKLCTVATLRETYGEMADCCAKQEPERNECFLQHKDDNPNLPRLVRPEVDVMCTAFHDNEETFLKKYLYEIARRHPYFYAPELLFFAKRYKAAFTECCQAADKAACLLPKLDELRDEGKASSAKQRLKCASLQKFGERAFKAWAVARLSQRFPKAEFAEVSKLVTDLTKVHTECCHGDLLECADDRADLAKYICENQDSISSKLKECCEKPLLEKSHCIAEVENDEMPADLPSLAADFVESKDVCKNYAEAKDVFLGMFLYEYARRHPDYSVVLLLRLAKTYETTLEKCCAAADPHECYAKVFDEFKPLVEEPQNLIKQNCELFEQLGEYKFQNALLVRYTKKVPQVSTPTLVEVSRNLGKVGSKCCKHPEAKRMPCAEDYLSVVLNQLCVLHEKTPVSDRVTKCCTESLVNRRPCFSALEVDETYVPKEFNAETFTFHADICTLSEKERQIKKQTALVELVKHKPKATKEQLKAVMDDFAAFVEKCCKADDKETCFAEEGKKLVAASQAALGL

HSA Site II and AGP [2] = experiment: Four-nuclide simultaneous measurement, human serum 2 (AGP variant): displacement of ^125I-IMP
From the text: (§1) In addition, the possibility of monitoring the protein binding displacement effect of a drug in the serum was examined.

AGP Site A and B [3] = experiment: Four-nuclide simultaneous measurement, human serum 2 (AGP variant): displacement of ^3H-PPL
From the text: as §1

HSA Site I [4] = biological target: T1, HSA Site I; conditions: human serum 1; added drug 400 μM
HSA Site I [5] = biological target: T1, HSA Site I; experiment: Four-nuclide simultaneous measurement, human serum 2 (AGP variant): displacement of ^99mTcO4^-
From the text: as §1

AGP Site A and B [6] = conditions: for Change ratio (time) of ^3H-PPL free drug ratio / Free drug ratio (%) of ^3H-PPL: human, 400 μM, pH 7.4
HSA Site II and AGP [7] = conditions: human, 400 μM, pH 7.4
HSA Site II = HSA Site II (Homo sapiens, UniProt P02768); conditions: for Change ratio (time) of ^14C-DZP free drug ratio / Free drug ratio (%) of ^14C-DZP: human, 400 μM, pH 7.4
HSA Site II, sequence (P02768 25-609): as above

HSA Site I [8] = biological target: T1, HSA Site I; conditions: 400 μM, pH 7.4
HSA Site I [9] = biological target: T1, HSA Site I; experiment: Table 6, two-nuclide simultaneous measure, human pooled serum: column headed ^99mTcO4^-; conditions: physiological saline instead of displacement drug
plasma protein = conditions: used in the concentration of a diagnostic agent; cited from earlier work
HSA Site II and AGP [10] = experiment: Table 6, two-nuclide simultaneous measure, human pooled serum: column headed ^125I-IMP; conditions: physiological saline instead of displacement drug
HSA Site II and AGP [11] = experiment: Four-nuclide simultaneous measurement, human serum 1: displacement of ^125I-IMP; conditions: human serum 1, four nuclides
[12] = physiological saline instead of displacement drug (Table 5)
[13] = physiological saline instead of drug (Table 4)
[14] = physiological saline control (Table 8)
[15] = physiological saline instead of drug (Table 7)

CCCCC1C(=O)NC(=O)N(C2CCCCC2)C1=O (stereo not shown) [BCL, bucolome]
Displacement effect on drug with affinity to site I of HSA (^99mTcO4^-), in words (HSA Site I [1]): significant displacement effect | Effect on binding of ^125I-IMP, in words (HSA Site II and AGP [2]): increased | Effect on binding of ^3H-PPL, in words (AGP Site A and B [3]; human serum 2 (AGP variant)): increased | Displacement effect on ^14C-WRF, in words (HSA Site I [4]): significant displacement effect | Displacement effect on ^99mTcO4^-, in words (HSA Site I [5]): significant displacement effect

CC[C@H]1OC(=O)[C@H](C)[C@@H](O[C@H]2C[C@@](C)(OC)[C@@H](O)[C@H](C)O2)[C@H](C)[C@@H](O[C@@H]2O[C@H](C)C[C@H](N(C)C)[C@H]2O)[C@](C)(O)C[C@@H](C)C(=O)[C@H](C)[C@@H](O)[C@]1(C)O [ETM, erythromycin]
Effect on free drug with affinity to AGP, in words (AGP Site A and B [6]): effective displacement drug | Change ratio (time) of ^3H-PPL free drug ratio (AGP Site A and B [6]): 1.93 time | Free drug ratio (%) of ^3H-PPL (AGP Site A and B [6]): 23.79% | Change ratio (time) of ^125I-IMP free drug ratio (HSA Site II and AGP [7]): 1.61 time | Free drug ratio (%) of ^125I-IMP (HSA Site II and AGP [7]): 54.78% | Change ratio (time) of ^14C-DZP free drug ratio (HSA Site II): 1.04 time | Free drug ratio (%) of ^14C-DZP (HSA Site II): 2.67% | Change ratio (time) of ^99mTcO4^- free drug ratio (HSA Site I [8]): 0.99 time | Free drug ratio (%) of ^99mTcO4^- (HSA Site I [8]): 0.88%

CC(C)Cc1ccc(C(C)C(=O)O)cc1 (stereo not shown) [IPF, ibuprofen]
Effect on binding of ^3H-PPL, in words (AGP Site A and B [3]): increased

CC(=O)N[C@@H](Cc1c[nH]c2ccccc12)C(=O)O [NAT, N-acetyltryptophan]
Effect on free drug with affinity to AGP, in words (AGP Site A and B [6]): effect to reduce the concentration to some extent | Change ratio (time) of ^3H-PPL free drug ratio (AGP Site A and B [6]): 0.94 time | Free drug ratio (%) of ^3H-PPL (AGP Site A and B [6]): 11.54% | Change ratio (time) of ^125I-IMP free drug ratio (HSA Site II and AGP [7]): 1.01 time | Free drug ratio (%) of ^125I-IMP (HSA Site II and AGP [7]): 34.19% | Effect on free drug with affinity to site II of HSA, in words (HSA Site II): effective displacement drug | Change ratio (time) of ^14C-DZP free drug ratio (HSA Site II): 1.21 time | Free drug ratio (%) of ^14C-DZP (HSA Site II): 3.08% | Change ratio (time) of ^99mTcO4^- free drug ratio (HSA Site I [8]): 1.07 time | Free drug ratio (%) of ^99mTcO4^- (HSA Site I [8]): 0.97%

N[C@@H](Cc1c[nH]c2ccccc12)C(=O)O [Trp, tryptophan]
Change ratio (time) of ^3H-PPL free drug ratio (AGP Site A and B [6]): 1.01 time | Change ratio (time) of ^125I-IMP free drug ratio (HSA Site II and AGP [7]): 0.94 time | Change ratio (time) of ^14C-DZP free drug ratio (HSA Site II): 2.25 time | Change ratio (time) of ^99mTcO4^- free drug ratio (HSA Site I [8]): 1.08 time

[O]=[99Tc](=[O])(=[O])[O-] [^99 mTcO4^-, Pertechnetium acid]
Free drug ratio of control (%), ^99mTcO4^- (HSA Site I [1]; [12]): 21.07% | Free drug ratio of control (%), ^99mTcO4^- (HSA Site I [1]; [13]): 21.07% | Free drug ratio of control (%), ^99mTcO4^- (HSA Site I [5]; [14]): 21.08% | Free drug ratio of control (%), ^99mTcO4^- (HSA Site I [5]; [15]): 21.08% | Free drug ratio of control (%), ^99mTcO4^- (HSA Site I [9]): 0.90%

O=C([O-])CN=C([O-])CN=C([O-])CN=C([O-])C[S-].[O-2].[Tc+4] [^99mTc-MAG3, 99m-technetium labeled mercaptoacetylglycylglycylglycine]
Binding to plasma protein (plasma protein): about 90%

CC(C)NC(C)Cc1ccc([125I])cc1 (stereo not shown) [^125I-IMP]
Free drug ratio of control (%), ^125I-IMP (HSA Site II and AGP [10]): 33.98% | Free drug ratio of control (%), ^125I-IMP (HSA Site II and AGP [2]; [14]): 27.23% | Free drug ratio of control (%), ^125I-IMP (HSA Site II and AGP [2]; [15]): 27.23% | Free drug ratio of control (%), ^125I-IMP (HSA Site II and AGP [11]; [12]): 23.40% | Free drug ratio of control (%), ^125I-IMP (HSA Site II and AGP [11]; [13]): 23.40%
